Results as given in patent US11643393B2, “Integrin antagonists” (The General Hospital Corporation, priority 2018, dated 2023).
“Also recorded” adds a separate entry of the source. Like-named read-outs stand apart in the source and are kept apart here. Positions of bridges follow the written chain, without caps; N, C: chain ends. Non-standard residues stand in square brackets, D forms with d. Residues, ends and D or L forms follow the SMILES beside them. hArg = N=C(N)NCCCC[C@H](N)C(=O)O; Mpa = O=C(O)CCS

Columns and labels:
[1] = target: T1, αIIbβ3 (Homo sapiens, UniProt P05106+P08514); test: Displacement of labeled fibrinogen binding to αIIbβ3-K562 cells (flow cytometry); parameters: expressed in transfected cells; host or cells: K562
T1 sequence (P08514 32-887 limits assumed): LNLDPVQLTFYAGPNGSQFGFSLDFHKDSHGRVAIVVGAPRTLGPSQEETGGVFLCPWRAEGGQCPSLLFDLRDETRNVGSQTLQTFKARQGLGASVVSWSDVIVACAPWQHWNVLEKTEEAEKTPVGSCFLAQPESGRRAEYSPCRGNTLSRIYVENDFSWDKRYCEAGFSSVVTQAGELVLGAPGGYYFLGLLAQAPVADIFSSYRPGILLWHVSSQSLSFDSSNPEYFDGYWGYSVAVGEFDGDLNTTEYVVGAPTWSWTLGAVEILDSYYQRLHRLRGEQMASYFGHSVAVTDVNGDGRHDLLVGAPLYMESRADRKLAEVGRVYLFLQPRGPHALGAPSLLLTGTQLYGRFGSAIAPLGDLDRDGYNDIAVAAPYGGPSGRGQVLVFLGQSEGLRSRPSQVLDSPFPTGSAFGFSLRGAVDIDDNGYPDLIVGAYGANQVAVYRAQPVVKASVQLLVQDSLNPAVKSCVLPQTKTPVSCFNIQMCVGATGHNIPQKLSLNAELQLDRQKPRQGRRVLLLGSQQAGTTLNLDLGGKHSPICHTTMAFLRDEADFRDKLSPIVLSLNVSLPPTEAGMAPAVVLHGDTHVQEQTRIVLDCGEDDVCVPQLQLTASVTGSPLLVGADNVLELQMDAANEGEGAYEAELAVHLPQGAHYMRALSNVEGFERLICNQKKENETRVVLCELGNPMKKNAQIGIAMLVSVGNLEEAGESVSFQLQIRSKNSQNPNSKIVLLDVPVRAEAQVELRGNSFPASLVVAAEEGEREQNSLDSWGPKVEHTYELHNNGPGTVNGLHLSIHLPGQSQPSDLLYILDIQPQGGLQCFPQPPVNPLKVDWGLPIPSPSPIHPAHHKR
T1 sequence (P08514 891-1039 partner limits assumed): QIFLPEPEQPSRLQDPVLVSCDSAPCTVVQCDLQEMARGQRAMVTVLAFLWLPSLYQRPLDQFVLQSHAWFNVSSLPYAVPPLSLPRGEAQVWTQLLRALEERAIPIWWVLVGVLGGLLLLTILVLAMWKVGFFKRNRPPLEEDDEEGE
T1 sequence (P05106 27-788): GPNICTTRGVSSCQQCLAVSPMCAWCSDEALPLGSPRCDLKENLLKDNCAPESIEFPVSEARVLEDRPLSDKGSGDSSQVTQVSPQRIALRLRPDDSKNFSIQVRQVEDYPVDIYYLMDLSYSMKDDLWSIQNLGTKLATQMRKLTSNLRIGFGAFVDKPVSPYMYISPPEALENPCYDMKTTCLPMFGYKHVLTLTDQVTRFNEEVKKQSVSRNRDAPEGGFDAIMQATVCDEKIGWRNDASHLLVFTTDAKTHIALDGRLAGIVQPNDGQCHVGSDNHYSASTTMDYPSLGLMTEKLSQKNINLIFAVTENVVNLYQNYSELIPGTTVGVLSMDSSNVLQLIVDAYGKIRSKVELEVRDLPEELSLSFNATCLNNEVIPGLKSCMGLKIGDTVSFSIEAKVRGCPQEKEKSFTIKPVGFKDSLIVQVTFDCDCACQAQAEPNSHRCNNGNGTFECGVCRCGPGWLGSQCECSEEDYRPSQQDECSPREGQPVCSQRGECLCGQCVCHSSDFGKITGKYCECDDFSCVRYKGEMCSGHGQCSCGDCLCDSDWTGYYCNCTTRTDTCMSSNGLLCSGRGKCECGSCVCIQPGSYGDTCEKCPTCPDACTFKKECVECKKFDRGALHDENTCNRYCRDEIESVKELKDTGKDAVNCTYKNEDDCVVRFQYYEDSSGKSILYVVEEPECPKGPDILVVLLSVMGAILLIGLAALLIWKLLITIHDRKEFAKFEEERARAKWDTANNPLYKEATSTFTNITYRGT
Description: For ligand binding competition studies, 100 μL of PT-25-activated αIIbpβ3-K562 (1×10^6) were incubated for 30 minutes at RT with serially diluted concentrations of Hr10, hFN10, or eptifibatide in the presence of 0.5 μM Alexa647-conjugated FB. Cells were washed, fixed in 2% paraformaldehyde and analyzed by flow cytometry. Ligand binding was expressed as […] of cells in the absence of competitor ligands. Mean and SD from three independent experiments were calculated, and compared using Student's t-test.

[2] = test system: human platelet-rich plasma (PRP); test: Thrombin-induced clot retraction; assay type: cell-based; details: for effect on clot retraction induced by α-thrombin: FIG. 5, tirofiban 1.5 μM, m-tirofiban 15 μM, α-thrombin 0.5 unit/mL; for kinetics of thrombin-induced clot retraction: FIG. 6E, three experiments, vs buffer control
Description: 750 μL of Tyrode's buffer supplemented with inhibitor was mixed in a glass culture tube with 200 μL of PRP and 5 μL red blood cells. Clotting was initiated by addition of 50 μL thrombin at 10 units/ml in saline and a sealed Pasteur pipette secured in the tube center. Digital photographs of the experiment were taken at 15-minute intervals over 2 hours. Images were analyzed with ImageJ software to determine the area occupied by the clot and plasma. Plots of the relative areas and linear regressions were performed with SigmaPlot (Systat Software, San Jose, Calif.).
No ligands were added to the control (FIG. 5C) tube. Photographs were taken immediately after thrombin addition (FIG. 5A) and at the end of the reaction (FIG. 5B). Clot retraction around the central glass rod placed in each glass test tube before thrombin addition is shown. 5 μL of red blood cells were added per 1 mL reaction to enhance the color contrast for photography.
Clot retraction normally helps secure hemostasis in vivo as evidenced by increased bleeding in mice with impaired clot retraction (see e.g., Leon et al, Blood 110, 3183-3191, doi: 10.1182/blood-2007-03-080184 (2007)), or in recipients of any of the three anti-αIIbβ3 drugs (see e.g., Tutwiler et al, Biophys. J. 112, 714-723 (2017); Osdoit et al, J. Biol. Chem. 276, 6703-6710 (2001); Haling et al, Blood 117, 1719-1722 (2011)). The effects of Hr10 and eptifibatide on thrombin-induced clot retraction in fresh human platelet-rich plasma (PRP) (see e.g., Tucker et al, Methods Mol. Biol. 788, 101-107 (2012)) were compared. The kinetics of clot retraction were determined from quantification of serial images of the reaction acquired every 15 minutes for the 2-hour duration of the assay. […] Thrombolysis, 15, 71-80 (2003).

[3] = target: T1, αIIbβ3; test: Displacement of labeled Hr10 binding to inactive or PT-25-activated αIIbβ3-K562 cells (FACS); parameters: expressed in transfected cells; host or cells: K562; details: for IC50: Alexa488-labeled Hr10, 1 mM Mg2+ and Ca2+
Description: […] Cells were washed, fixed in 2% paraformaldehyde and analyzed by flow cytometry. Ligand binding was expressed as […] of cells in the absence of competitor ligands. Mean and SD from three independent experiments were calculated, and compared using Student's t-test.

[4] = test system: human platelets; test: Agonist-induced platelet aggregation in whole human blood (impedance, Chrono-Log 700); assay type: cell-based; details: for IC50: Homo sapiens, Platelet
Description: (§1) Platelet aggregation and ATP secretion in whole blood were performed in a Chrono-Log model 700 two-channel lumi-aggregation system following the manufacturer's instructions. Blood was drawn directly into 3.2% sodium citrate from healthy volunteers, and blood was used within 3 hours. None of the subjects were taking any medications for at least 10 days prior. For impedance aggregation measurements, 0.5 mL of blood was mixed with 0.5 mL physiologic saline supplemented with inhibitors and incubated at 37° C. for 5 minutes without stirring. Measurements were performed with stirring at 1,200 rpm at 37° C. Values for each data point represent impedance measurements following application of agonist integrated over 5 minutes. Data points for an individual dose curve were serially collected from a single draw and analyzed with SigmaPlot (Systat Software, San Jose, Calif.) using a least-square fit to a logistic curve and the IC50 value determined from the fitted parameter. ATP secretion proceeded similarly except that 0.45 mL of whole blood were added to 0.45 mL of saline supplemented with various concentrations of Hr10 or eptifibatide to produce the desired concentration at 1.0 mL. Following incubation for 5 minutes at 37° C., 100 μL of Chrono-lume reagent was added and aggregation initiated. The luminescence signal was quantified with a non-aggregated sample supplemented with an ATP standard.
Platelet aggregation was measured in whole blood by impedance increase with a Chrono-log model 700 according to the manufacturer's protocol. Citrated whole blood was diluted with an equal volume of physiologic saline (Sigma) and incubated for 5 min at 37° C. without stirring. Inhibitors were added to final concentration and the cuvette stirred at 1,200 rpm. Following establishment of stable baseline, ADP (20 μM) was added and tracings recorded for 6 min. The extent of aggregation was determined as the integrated impedance over 5 min.

[5] = target: T1, αIIbβ3; test: Binding of conformation-sensitive mAbs AP5 / LIBS-1 to human platelets; assay type: cell-based; details: for induction of AP5 epitope expression: tirofiban 150 nM
[6] = test system: vWF^RH/RH NSG mice infused with human platelets; test: Cremaster laser-induced arteriolar injury thrombosis in humanized mice; assay type: in vivo; details: eptifibatide 5 μg/mouse, Hr10 60 μg/mouse (equimolar), infused 5 min prior to injury; FIG. 13A
Description: Intravital microscopy was performed as previously described (see e.g., Celi et al, J. Thromb. Haemost. 1, 60-68 (2003); and Neyman et al, Blood, 112, 1101-1108 (2008)). vWF^RH/RHNSG male mice were studied after being anesthetized using sodium pentobarbital (80 mg/kg) injected intraperitoneally. Mice were maintained under anesthesia with the same anesthetic delivered via a catheterized jugular vein at 5 mg/mL throughout the experiment. The cremaster muscle was surgically exteriorized and continuously superfused with a physiological buffer (PBS containing 0.9 mM CaCl2 and 0.49 mM MgCl2) maintained at 37° C. throughout the entire experiment and equilibrated with a mixture of 95% N2 and 5% CO2. Human platelets, 400 million per mouse, were labeled with mouse anti-human CD41 F(ab′)2 (BD Biosciences) conjugated to Alexa Fluor-488 and infused into the jugular vein, followed by Alexa Fluor-647 rat anti-mouse CD41 F(ab′)2 (Thermo Fisher) to detect endogenous mouse platelets (see e.g., Fuentes et al, J. Clin. Invest. 126, 483-494 (2016)). Vascular injury was induced with an SRS NL100 pulsed nitrogen dye laser (440 nm) focused on the vessel wall through the microscope objective. […] Intensity of the fluorescent signal was used to measure incorporated platelets (see e.g., Neyman et al, Blood 112, 1101-1108 (2008). Eight injuries were made in each of four mice in each group.

[7] = target: T2, αIIbβ3 on resting platelets (Homo sapiens, UniProt P05106+P08514); details: Schror & Weber 2003, read-out: affinity of eptifibatide to αIIbβ3 on resting platelets (kD); cited from earlier work
T2 construct: host or cells: resting platelets
T2 sequence (P08514 32-887 limits assumed): as the sequence (P08514 32-887 limits assumed) above
T2 sequence (P08514 891-1039 partner limits assumed): as the sequence (P08514 891-1039 partner limits assumed) above
T2 sequence (P05106 27-788): as the sequence (P05106 27-788) above

[8] = test system: human platelets; test: ADP-induced surface expression of CD62P and CD63 on platelets; assay type: cell-based; details: 1.5 μM; ADP 20 μM; FIG. 11F
Description: αVβ3-K562 cells or transiently transfected HEK293T (0.5×10^6 in 100 μL WB) were incubated in the absence or presence of unlabeled Hr10 or eptifibatide, each at 1.5 μM, for 20 min at RT. Alexa647-labeled AP5 Fab or unlabeled anti-LIBS-1 (each to 10 μg/mL) were added, and cells incubated for an additional 30 min before washing. Alexa647-labeled AP3 was used for normalization of integrin expression. APC-labeled goat anti-mouse Fc-specific antibody was added to anti-LIBS-1-bound cells for an additional 30 min at 4° C., cells washed and processed for flow cytometry. Binding of anti-CD62 and anti-CD63 mAbs to platelets was performed by incubating (20 min, RT) 100 μL of ligand-pretreated 3.2% sodium citrate whole blood with either Alexa488-labeled mAb (at 10 μg/mL) in the presence of 10 μg/mL Alexa647-labeled anti-CD42b. Cells were fixed in 2% paraformaldehyde and CD62 and CD63 expression was analyzed by flow cytometry in the CD42b positive population.

[9] = test system: human platelets; test: ADP-induced ATP secretion from dense granules in whole blood; assay type: cell-based; details: 1.5 μM; ADP 20 μM; FIG. 11E
Description: as §1

[10] = FIG. 6D, M-tirofiban 1.5 μM, human platelets

SMILES | IC50 ([1]; FIG. 6B, mean±S.E., n=4 experiments, read-out: IC50, displacement of labeled fibrinogen bound to preactivated αIIbβ3-K562) [nM] | effect on clot retraction induced by α-thrombin [2] | kinetics of thrombin-induced clot retraction [2] | binding affinity to inactive vs. active αIIbβ3 ([3]; FIGS. 6F-6G, 12C) | IC50 ([3]; active αIIbβ3, read-out: IC50, displacement of labeled Hr10 binding to mAb PT-25-activated αIIbβ3-K562) [nM] | IC50 ([3]; inactive αIIbβ3, read-out: IC50, displacement of labeled Hr10 binding to inactive αIIbβ3-K562) [nM] | IC50 ([4]; read-out: IC50, human platelet aggregation induced by ADP) [nM] | reduction in affinity of M-tirofiban vs. tirofiban ([4]; from fibrinogen displacement and platelet aggregation assays) [fold] | activating conformational changes in αIIbβ3 reported by AP5 binding ([5]; FIG. 4, human platelets in PRP, saturating amounts, absence or presence of 20 μM ADP) | effect on ADP-induced AP5 expression ([5]; FIG. 6D, M-tirofiban 1.5 μM, ADP 5 μM added before or after) | induction of AP5 epitope expression [5, 10] | nascent occlusive thrombus formation at sites of laser-induced arteriolar injury [6] | Kd [7] [nM] | ADP-induced secretion from platelet α-granules (CD62P expression) and lysosomes (CD63 expression) [8] | IC50 ([1]; FIG. 8C, preactivated αIIbβ3-K562, mean S.E., n=3, read-out: IC50, inhibition of binding of Alexa647-labeled soluble FB to activated αIIbβ3) [nM] | kinetics of thrombin-induced clot retraction vs. buffer ([2]; FIGS. 12A-12B, fresh human PRP, 2-hour assay) | inhibition of ADP-induced ATP secretion from dense granules in whole blood [9] [%] | conformational changes in αIIbβ3 reported by binding of mAbs AP5 and LIBS-1 ([5]; FIG. 8D, 1.5 μM, human platelets, absence or presence of 5 μM ADP) | IC50 ([4]; FIG. 6C, ADP 20 μM, mean±S.E., n=5, three donors, read-out: IC50, human platelet aggregation induced by ADP) [nM] | IC50 ([4]; summary of FIGS. 6B-6C, ADP 20 μM, read-out: Prevention of ADP-induced human platelet aggregation, concentration range) [nM]
O=C(N[C@@H](Cc1ccc(OCCCCC2CCNCC2)cc1)C(=O)O)c1nc2ccccc2o1 [M-tirofiban, OC(═O)[C@H](CC1═CC═C(OCCCCC2CCNCC2)C═C1)NC(═O)C1═NC2═C(O1)C ═CC═C2] | 30.9 ± 3.3 | reduced clot retraction minimally | did not; also recorded: not different between buffer control (contr.) and M-tirofiban | equivalent binding affinities to inactive and active | 247 ± 29.3 | 257 ± 88 | 18.5 ± 5.4 | ~10 | did not induce the activating shape-shifts | suppressed ADP-induced AP5 expression | did not induce AP5 expression; also recorded: No significant differences were found between B and M |  |  |  |  |  |  |  |  | 
N=C(N)NCCCC[C@@H]1NC(=O)CCSSC[C@@H](C(N)=O)NC(=O)[C@@H]2CCCN2C(=O)[C@H](Cc2c[nH]c3ccccc23)NC(=O)[C@H](CC(=O)O)NC(=O)CNC1=O [eptifibatide] ([Mpa][hArg]GDWPC-NH2; disulfide 1-7) |  |  |  |  |  |  |  |  |  |  |  | completely preventing nascent occlusive thrombus formation | 120 | did not significantly alter | 73.2 ± 7 | clot retraction was significantly reduced vs buffer; also recorded: significantly blocked clot retraction | 60±200 | induced conformational changes in αIIbβ3 |  | 
CCCCS(=O)(=O)N[C@@H](Cc1ccc(OCCCCC2CCNCC2)cc1)C(=O)O [tirofiban] |  | completely blocked clot retraction | effectively blocked thrombin-induced clot retraction |  |  |  |  |  |  |  | induced expression of the AP5 epitope |  |  |  |  |  |  |  | 1.41 ± 0.23 | 1.5 to 2
